Literature values, collected in article PMC6130628, “Some pharmacokinetic parameters of salvianolic acid A following single-dose oral administration to rats” (Pharmaceutical Biology, 2018).

Set-up: method as in Sun et al. [2013]
Conditions: Beagle dogs, oral, pure form; ref Sun et al. [2013]; cited from earlier work

For `O=C(/C=C/c1ccc(O)c(O)c1/C=C/c1ccc(O)c(O)c1)O[C@H](Cc1ccc(O)c(O)c1)C(=O)O` [Sal A, Salvianolic acid A], the absolute bioavailability is given as 1.25%.
